In patent publication US6723742B2, “Substituted 3,5-diphenyl-1,2,4-triazoles and their use as pharmaceutical metal chelators” (Novartis AG., priority 1996, dated 2004):

Legend:
Male Sprague-Dawley rats = test: Test I: iron excretion induced in bile duct-cannulated rats (bile and urine iron, bathophenanthroline method); type: in vivo; settings: bile duct-cannulated fasted rat, bile and urine collected for 24 h
Experimental: Test I: Iron Excretion Induced by Compounds of Formula I or II [Method as Described in Bergeron et al., J. Med. Chem. 34:2072-2078 (1991)]
Male Sprague-Dawley rats averaging 400 g are housed in Nalgene plastic metabolic cages and are given free access to water. The animals are anesthetized with sodium pentobarbital (50 mg/kg), given ip. The bile duct is cannulated with 22 gauge PE 50 tubing which is inserted ca. 2 cm into the duct and tied firmly in place. A skin-tunneling needle is inserted from the shoulder area around the abdominal incision. The cannula is threaded through the needle until it emerges from the shoulder opening. The cannula is then passed from the animal to the swivel inside a metal torque-transmitting tether, which is attached to a rodent jacket. The cannula is directed from the animal to a Gilson microfraction collector by a fluid swivel mounted above the metabolic cage. This system allows the animal to move freely in the cage while continuous bile samples are being collected. Bile samples are collected in plastic disposable tubes at 3 h intervals for 24 h. Urine samples are collected in plastic disposable tubes for 24 h.
Compounds of formula I or II are prepared in 60 % water, 40 % Cremophor RH-40 (v/v).
All animals are fasted for 48 h before the administration of the compound of formula I or II and the fast is maintained throughout the course of the experiment.
The iron indicator solution, solution A, is prepared by diluting a stock aqueous solution of 0.134 mM mercaptoacetic acid and 1.9 mM bathophenanthrolinedisulfonic acid disodium salt with 5 parts water and 5 parts saturated aqueous sodium acetate. Solution B is prepared as above but without the bathophenanthroline.
An equal volume of a 10 % trichloroacetic acid solution in 3 M HCl (solution C) is added to a urine sample (2.5 ml), and the sample heated in a 65° C. bath for 4 h. After filtration through nylon filters, two 1 ml aliquots are removed. Solution A (5 ml) is added to the sample, and solution B (5 ml) is added to the blank. Bile samples are prepared as the urine samples; however, the volumes are reduced. Standard iron curves are generated with each assay. All samples are transferred to polystyrene cuvettes and the absorbance measured at 535 nm.
Compounds of formula I or II are effective in this assay when administered at a dose in the range of from 10 to 200 mg/kg, e.g. 100 to 150 mg/kg. The induced total iron excretion is in the range of about 10 to 1500 μg Fe/kg body weight, e.g. 90 to 1000 μg Fe/kg body weight.

[1] = test system: iron-overloaded marmosets (Callithrix jacchus); test: Test II: iron excretion induced in iron-overloaded marmosets (urine and feces iron); type: in vivo; settings: iron-overloaded marmoset, p.o., dose 110.5 mg/kg; 48 h after administration, pretreatment subtracted; one line per animal
Experimental: Test II: Iron Excretion Induced by Compounds of Formula I or II [Method as Described in Bergeron et al., Blood 81:2166-2173 (1993)]
Adult (1 to 11 years old) marmosets (Callithrix jacchus) of both sexes, weighing 300 to 450 g are kept in pairs at 24-27° C. and a relative humidity of at least 60% in a 12-hour light-dark cycle. The animals are maintained on a pellet diet (No. 962 Nafag, Gossau, Switzerland) supplemented with fruit-vegetable mash, enriched with a vitamin-minerals concentrate (No. 9628 Nafag) and milk. Water is available ad libitum.
Iron-overloading procedure: The animals are iron-overloaded by 3 i.p. injections of iron (III) hydroxide polyisomaltose (Anaemex, Ciba-Geigy, Basel, Switzerland) at 14-day intervals (200 mg/kg twice and 100 mg/kg at the third injection). Prior to the first exposure to an iron chelator, the marmosets are rested at least 8 weeks.
Chelators administration: The test compounds are dispersed in 40 % aqueous Cremophor RH 40 (BASF, Ludwigshafen, Germany) for administration. The applied volume is 5 ml/kg body weight.
Iron excretion studies: The monkeys receive a low-iron diet 7 days before and throughout the experiments (4 days). The diet is prepared by mixing 628.9 g of a liquid diet for primates (Nafag No. 9694), 83 g of the corresponding lipid mixture (Nafag No. 9696), 131.3 g dietary fiber (Sanacell, Nafag) and 1.0 L of distilled water. […]

Row | SMILES | induced total iron excretion (Male Sprague-Dawley rats; dose 100 mg/kg) [μg Fe/kg body weight] | also measured
1 | OCCn1nc(-c2ccccc2O)nc1-c1ccccc1O [Example 1, 3,5-Bis(2-hydroxyphenyl)-1-(2-hydroxyethyl)-1H-[1,2,4]triazole] | 368 | –
2 | CCOC(=O)Cn1nc(-c2ccccc2O)nc1-c1ccccc1O [Example 2, Ethyl [3,5bis(2-hydroxyphenyl)-[1,2,4]triazol-1-yl]acetate] | 91 | –
3 | O=C(O)c1ccc(-n2nc(-c3ccccc3O)nc2-c2ccccc2O)cc1 [Example 5, 4-[3,5-Bis(2-hydroxyphenyl)-[1,2,4]triazol-1-yl]benzoic acid] | 659 | –
4 | O=C(c1ccc(-n2nc(-c3ccccc3O)nc2-c2ccccc2O)cc1)N1CCOCC1 [Example 6, {4-[3,5-Bis(2-hydroxyphenyl)-[1,2,4]triazol-1-yl]-phenyl}morpholin-4-yl-methanone] | – | induced total iron excretion (Male Sprague-Dawley rats; dose 133 mg/kg): 968 μg Fe/kg body weight
5 | O=C(O)c1ccc(-n2nc(-c3cc(Cl)ccc3O)nc2-c2cc(Cl)ccc2O)cc1 [Example 17, 4-[3,5-Bis(5-chloro-2-hydroxyphenyl)-[1,2,4]triazol-1-yl]benzoic acid] | – | induced total iron excretion (Male Sprague-Dawley rats; dose 133 mg/kg): 203 μg Fe/kg body weight
6 | Cc1ccc(O)c(-c2nc(-c3cc(C)ccc3O)n(-c3ccc(C(=O)O)cc3)n2)c1 [Example 21, 4-[3,5-Bis(2-hydroxy-5-methylphenyl)-[1,2,4]triazol-1-yl]benzoic acid] | – | induced total iron excretion (Male Sprague-Dawley rats; dose 120 mg/kg): 317 μg Fe/kg body weight
7 | O=C(O)Cn1nc(-c2ccccc2O)nc1-c1ccccc1O [Example 22, [3,5-Bis(2-hydroxyphenyl)-[1,2,4]triazol-1-yl]acetic acid] | 147 | –
8 | O=C(Cn1nc(-c2ccccc2O)nc1-c1ccccc1O)NCCO [Example 24, 2-[3,5bis(2-hydroxyphenyl)-(1,2,4]triazol-1-yl]-N-(2-hydroxyethyl)acetamide] | 413 | –
9 | COCCNC(=O)Cn1nc(-c2ccccc2O)nc1-c1ccccc1O [Example 25, 2-[3,5-Bis(2-hydroxyphenyl)-[1,2,4]triazol-1-yl]-N-(2-methoxyethyl)acetamide] | 337 | induced iron in feces [1]: 163.2 µg/kg
10 | O=C(Cn1nc(-c2ccccc2O)nc1-c1ccccc1O)NCC(O)CO (stereo not drawn) [Example 26, 2-[3,5-Bis(2-hydroxyphenyl)-[1,2,4]triazol-1-yl]-N-(2,3-dihydroxypropyl)-acetamide] | 171 | –
11 | O=C(Cn1nc(-c2ccccc2O)nc1-c1ccccc1O)NCCN1CCOCC1 [Example 27, 2-[3,5-Bis(2-hydroxyphenyl)-[1,2,4]triazol-1-yl]-N-(2-morpholin-4-yl-ethyl)-acetamide] | 451 | –
12 | CN(CCO)C(=O)Cn1nc(-c2ccccc2O)nc1-c1ccccc1O [Example 28, 2-[3,5-Bis(2-hydroxyphenyl)-[1,2,4]triazol-1-yl]-N-(2-hydroxyethyl)-N-methyl-acetamide] | 413 | –
13 | O=C(Cn1nc(-c2ccccc2O)nc1-c1ccccc1O)NCCOCCO [Example 29, 2-[3,5-Bis(2-hydroxyphenyl)-[1,2,4]triazol-1-yl]-N-[2-(2-hydroxyethoxy)ethyl]-acetamide] | 359 | –
14 | O=C(Cn1nc(-c2ccccc2O)nc1-c1ccccc1O)NCCN(CCO)CCO [Example 30, N-{2-[Bis(2-hydroxyethyl)amino]ethyl}-2-[3,5-bis(2-hydroxyphenyl)-[1,2,4]triazol-1-yl]acetamide] | 447 | –
15 | O=C(Cn1nc(-c2ccccc2O)nc1-c1ccccc1O)NC(CO)CO [Example 31, 2-[3,5-Bis(2-hydroxyphenyl)-[1,2,4]triazol-1-yl]-N-(2-hydroxy-1-hydroxymethyl-ethyl)acetamide] | 175 | –
16 | CN(C)C(=O)Cn1nc(-c2ccccc2O)nc1-c1ccccc1O [Example 33, 2-[3,5-Bis(2-hydroxyphenyl)-[1,2,4]triazol-1-yl]-N,N-dimethylacetamide] | 282 | –
17 | O=C(Cn1nc(-c2ccccc2O)nc1-c1ccccc1O)N1CCOCC1 [Example 34, 2-[3,5-Bis(2-hydroxyphenyl)-[1,2,4]triazol-1-yl]-l-morpholin-4-ylethanone] | 204 | –
18 | CN1CCN(C(=O)Cn2nc(-c3ccccc3O)nc2-c2ccccc2O)CC1 [Example 35, 2-[3,5-Bis(2-hydroxyphenyl)-[1,2,4]triazol-1-yl]-1-(4-methylpiperazin-1-yl)-ethanone] | – | induced total iron excretion (Male Sprague-Dawley rats; dose 118 mg/kg): 293 μg Fe/kg body weight
19 | O=C(Cn1nc(-c2ccccc2O)nc1-c1ccccc1O)N(CCO)CCO [Example 37, 2-[3,5-Bis(2-hydroxyphenyl)-[1,2,4]triazol-1-yl]-N,N-bis(2-hydroxyethyl)-acetamide] | 301 | –
20 | CN(C)CCN(C)C(=O)Cn1nc(-c2ccccc2O)nc1-c1ccccc1O [Example 38, 2-[3,5-Bis(2-hydroxyphenyl)-[1,2,4]triazol-1-yl]-N-(2-dimethylaminoethyl)-N-methylacetamide] | – | induced total iron excretion (Male Sprague-Dawley rats; dose 119 mg/kg): 970 μg Fe/kg body weight
